Experimental data reported in patent US20040063662A1, “Selenophene anti-tumor agents” (priority 1996, published 2004).

Assays:
[1] = test system: MCF7/ADR-RES; assay: NCI human tumor cell panel: MCF7/ADR-RES (Breast Cancer); type: cell-based; settings: for GI50: read-out: Log10 GI50 (converted); for IC (TGI): read-out: Log10 TGI (converted)
[2] = test system: MDA-MB-435; assay: NCI human tumor cell panel: MDA-MB-435 (Breast Cancer); type: cell-based; settings: for GI50: MDA-MB-435, read-out: Log10 GI50 (converted); for IC (TGI): MDA-MB-435, read-out: Log10 TGI (converted)
[3] = test system: OVCAR-3; assay: NCI human tumor cell panel: OVCAR-3 (Ovarian Cancer); type: cell-based; settings: for GI50: OVCAR-3, read-out: Log10 GI50 (converted); for IC (TGI): OVCAR-3, read-out: Log10 TGI (converted)
[4] = test system: SF-539; assay: NCI human tumor cell panel: SF-539 (CNS Cancer); type: cell-based; settings: for GI50: SF-539, read-out: Log10 GI50 (converted); for IC (TGI): SF-539, read-out: Log10 TGI (converted)
[5] = test system: PC-3; assay: NCI human tumor cell panel: PC-3 (Prostate Cancer); type: cell-based; settings: for GI50: PC-3, read-out: Log10 GI50 (converted); for IC (TGI): PC-3, read-out: Log10 TGI (converted)
[6] = test system: NCI-H460; assay: NCI human tumor cell panel: NCI-H460 (Non-Small Cell Lung Cancer); type: cell-based; settings: for GI50: NCI-H460, read-out: Log10 GI50 (converted); for IC (TGI): NCI-H460, read-out: Log10 TGI (converted)
[7] = test system: TK-10; assay: NCI human tumor cell panel: TK-10 (Renal Cancer); type: cell-based; settings: for GI50: TK-10, read-out: Log10 GI50 (converted)
[8] = test system: RPMI-8226; assay: NCI human tumor cell panel: RPMI-8226 (Leukemia); type: cell-based; settings: for GI50: RPMI-8226, read-out: Log10 GI50 (converted); for IC (TGI): RPMI-8226, read-out: Log10 TGI
[9] = test system: SF-295; assay: NCI human tumor cell panel: SF-295 (CNS Cancer); type: cell-based; settings: for GI50: SF-295, read-out: Log10 GI50 (converted)
[10] = test system: OVCAR-8; assay: NCI human tumor cell panel: OVCAR-8 (Ovarian Cancer); type: cell-based; settings: for GI50: OVCAR-8, read-out: Log10 GI50 (converted); for IC (TGI): OVCAR-8, read-out: Log10 TGI (converted)
[11] = test system: SR; assay: NCI human tumor cell panel: SR (Leukemia); type: cell-based; settings: for GI50: read-out: Log10 GI50 (converted); for IC (TGI): read-out: Log10 TGI (converted)
[12] = test system: K-562; assay: NCI human tumor cell panel: K-562 (Leukemia); type: cell-based; settings: for GI50: K562, K-562, read-out: Log10 GI50 (converted); for IC (TGI): K562, K-562, read-out: Log10 TGI (converted)
[13] = test system: SK-MEL-28; assay: NCI human tumor cell panel: SK-MEL-28 (Melanoma); type: cell-based; settings: for GI50: SK-MEL-28, read-out: Log10 GI50 (converted); for IC (TGI): SK-MEL-28, read-out: Log10 TGI (converted)
[14] = test system: UACC-257; assay: NCI human tumor cell panel: UACC-257 (Melanoma); type: cell-based; settings: for GI50: UACC-257, read-out: Log10 GI50 (converted); for IC (TGI): UACC-257, read-out: Log10 TGI (converted)
[15] = test system: IGROV1; assay: NCI human tumor cell panel: IGROV1 (Ovarian Cancer); type: cell-based; settings: for GI50: IGROV-1, IGROV1, read-out: Log10 GI50 (converted); for IC (TGI): IGROV-1, IGROV1, read-out: Log10 TGI (converted)
[16] = test system: NCI-H522; assay: NCI human tumor cell panel: NCI-H522 (Non-Small Cell Lung Cancer); settings: for GI50: NCI-H522, read-out: Log10 GI50 (converted); for IC (TGI): NCI-H522, read-out: Log10 TGI
[17] = test system: EKVX; assay: NCI human tumor cell panel: EKVX (Non-Small Cell Lung Cancer); type: cell-based; settings: for GI50: read-out: Log10 GI50 (converted); for IC (TGI): read-out: Log10 TGI (converted)
[18] = test system: 786-0; assay: NCI human tumor cell panel: 786-0 (Renal Cancer); type: cell-based; settings: for IC (TGI): 786-0, read-out: Log10 TGI (converted)
[19] = test system: A498; assay: NCI human tumor cell panel: A498 (Renal Cancer); type: cell-based; settings: for GI50: A498, read-out: Log10 GI50 (converted); for IC (TGI): A498, read-out: Log10 TGI (converted)
[20] = test system: SNB-19; assay: NCI human tumor cell panel: SNB-19 (CNS Cancer); type: cell-based; settings: for GI50: SNB-19, read-out: Log10 GI50 (converted)
[21] = test system: OVCAR-4; assay: NCI human tumor cell panel: OVCAR-4 (Ovarian Cancer); type: cell-based; settings: for GI50: OVCAR-4, read-out: Log10 GI50 (converted)
[22] = test system: UO-31; assay: NCI human tumor cell panel: UO-31 (Renal Cancer); type: cell-based; settings: for GI50: UO-31, read-out: Log10 GI50 (converted); for IC (TGI): UO-31, read-out: Log10 TGI (converted)
[23] = test system: MALME-3M; assay: NCI human tumor cell panel: MALME-3M (Melanoma); type: cell-based; settings: Malme-3M; for GI50: read-out: Log10 GI50 (converted); for IC (TGI): read-out: Log10 TGI (converted)
[24] = test system: KM12; assay: NCI human tumor cell panel: KM12 (Colon Cancer); type: cell-based; settings: for IC (TGI): KM12, read-out: Log10 TGI (converted)
[25] = test system: BT-549; assay: NCI human tumor cell panel: BT-549 (Breast Cancer); type: cell-based; settings: for GI50: BT-549, read-out: Log10 GI50 (converted); for IC (TGI): BT-549, read-out: Log10 TGI (converted)
[26] = test system: A549/ATCC; assay: NCI human tumor cell panel: A549/ATCC (Non-Small Cell Lung Cancer); type: cell-based; settings: for IC (TGI): read-out: Log10 TGI (converted)
[27] = test system: LOX IMVI; assay: NCI human tumor cell panel: LOX IMVI (Melanoma); type: cell-based; settings: for GI50: read-out: Log10 GI50 (converted); for IC (TGI): read-out: Log10 TGI (converted)
[28] = test system: OVCAR-5; assay: NCI human tumor cell panel: OVCAR-5 (Ovarian Cancer); type: cell-based; settings: for GI50: OVCAR-5, read-out: Log10 GI50 (converted); for IC (TGI): OVCAR-5, read-out: Log10 TGI (converted)
[29] = test system: NCI-H322M; assay: cells; type: cell-based; settings: Homo sapiens; for GI50: read-out: Log10 GI50 (converted); for IC (TGI): read-out: Log10 TGI (converted)
[30] = test system: HOP-92; assay: NCI human tumor cell panel: HOP-92 (Non-Small Cell Lung Cancer); settings: for GI50: HOP-92, read-out: Log10 GI50 (converted); for IC (TGI): HOP-92, read-out: Log10 TGI
[31] = test system: HS 578T; assay: NCI human tumor cell panel: HS 578T (Breast Cancer); type: cell-based; settings: for GI50: read-out: Log10 GI50 (converted); for IC (TGI): read-out: Log10 TGI (converted)
[32] = test system: ACHN; assay: NCI human tumor cell panel: ACHN (Renal Cancer); type: cell-based; settings: for GI50: read-out: Log10 GI50 (converted); for IC (TGI): read-out: Log10 TGI (converted)

O=Cc1ccc(-c2ccc(-c3ccc(C=O)[se]3)s2)s1 [compound 688829]
GI50 [1]: 30.2 µM
IC (TGI) [1]: > 100 µM
GI50 [2]: 33.1 µM
IC (TGI) [2]: > 100 µM
GI50 [3]: 0.129 µM
IC (TGI) [3]: 0.631 µM
GI50 [4]: 27.5 µM
IC (TGI) [4]: > 100 µM
GI50 [5]: 28.2 µM
IC (TGI) [5]: > 100 µM
GI50 [6]: 0.141 µM
IC (TGI) [6]: > 100 µM
GI50 [7]: 0.0282 µM
IC (TGI) ([7]; TK-10, read-out: Log10 TGI (converted)): 0.209 µM
GI50 [8]: 38.9 µM
IC (TGI) [8]: > 100 µM
GI50 [9]: > 100 µM
GI50 [10]: 15.1 µM
IC (TGI) [10]: 93.3 µM
GI50 [11]: 24.5 µM
IC (TGI) [11]: 72.4 µM
GI50 [12]: 0.251 µM
IC (TGI) [12]: > 100 µM
GI50 [13]: 66.1 µM
IC (TGI) [13]: > 100 µM
GI50 [14]: 0.195 µM
IC (TGI) [14]: 0.513 µM
GI50 [15]: 0.178 µM
IC (TGI) [15]: 2.45 µM
GI50 [16]: 11.2 µM
IC (TGI) [16]: 39.8 µM
GI50 [17]: > 100 µM
IC (TGI) [17]: > 100 µM
IC (TGI) [18]: 26.9 µM
GI50 [19]: 0.0214 µM
IC (TGI) [19]: 0.0794 µM
GI50 [20]: > 100 µM
GI50 [21]: 0.186 µM
GI50 [22]: > 100 µM
IC (TGI) [22]: > 100 µM
GI50 [23]: 28.8 µM
IC (TGI) [23]: > 100 µM
IC (TGI) [24]: > 100 µM
GI50 [25]: 56.2 µM
IC (TGI) [25]: > 100 µM
IC (TGI) [26]: > 100 µM
GI50 [27]: 16.6 µM
IC (TGI) [27]: > 100 µM
GI50 [28]: 0.123 µM
IC (TGI) [28]: 0.501 µM
GI50 [29]: 27.5 µM
IC (TGI) [29]: 89.1 µM
GI50 [30]: 97.7 µM
IC (TGI) [30]: > 100 µM
GI50 [31]: 2.88 µM
IC (TGI) [31]: > 100 µM
GI50 [32]: > 100 µM
IC (TGI) [32]: > 100 µM

OCc1ccc(-c2ccc(-c3ccc(CO)[se]3)[se]2)[se]1 [compound 675247]
GI50 [1]: 3.8 µM
IC (TGI) [1]: 26.3 µM
GI50 [2]: 2.95 µM
IC (TGI) [2]: 9.77 µM
GI50 [3]: 0.209 µM
IC (TGI) [3]: 1.17 µM
GI50 [4]: 17.4 µM
IC (TGI) [4]: 40.7 µM
GI50 [5]: 3.55 µM
IC (TGI) [5]: 12.3 µM
GI50 [6]: 0.525 µM
IC (TGI) [6]: 10 µM
GI50 [7]: 0.138 µM
GI50 [8]: 4.07 µM
IC (TGI) [8]: > 100 µM
GI50 [9]: 11.7 µM
IC (TGI) ([9]; SF-295, read-out: Log10 TGI (converted)): 28.8 µM
GI50 [10]: 3.72 µM
IC (TGI) [10]: 17.8 µM
GI50 [11]: 3.72 µM
IC (TGI) [11]: > 100 µM
GI50 [12]: 1.32 µM
IC (TGI) [12]: 5.01 µM
GI50 [13]: 5.13 µM
IC (TGI) [13]: > 100 µM
GI50 [14]: 0.437 µM
IC (TGI) [14]: 2 µM
GI50 [15]: 1.38 µM
IC (TGI) [15]: 6.46 µM
GI50 [16]: 1.66 µM
IC (TGI) [16]: 3.39 µM
GI50 [17]: 5.01 µM
IC (TGI) [17]: 34.7 µM
GI50 ([18]; 786-0, read-out: Log10 GI50 (converted)): 2.75 µM
IC (TGI) [18]: 6.31 µM
GI50 [19]: 0.38 µM
IC (TGI) [19]: 1.41 µM
GI50 [20]: 5.5 µM
IC (TGI) ([20]; SNB-19, read-out: Log10 TGI (converted)): 25.1 µM
GI50 [21]: 1.7 µM
IC (TGI) ([21]; OVCAR-4, read-out: Log10 TGI (converted)): 6.92 µM
GI50 [22]: 5.25 µM
IC (TGI) [22]: 14.8 µM
GI50 [23]: 2.88 µM
IC (TGI) [23]: 10.7 µM
GI50 ([24]; KM12, read-out: Log10 GI50 (converted)): 4.47 µM
IC (TGI) [24]: 15.1 µM
GI50 [25]: 3.39 µM
IC (TGI) [25]: 14.1 µM
GI50 ([26]; read-out: Log10 GI50 (converted)): 4.57 µM
IC (TGI) [26]: 19.5 µM
GI50 [27]: 3.02 µM
IC (TGI) [27]: 7.08 µM
GI50 [28]: 1.32 µM
IC (TGI) [28]: 12.9 µM
GI50 [29]: 11.2 µM
IC (TGI) [29]: 24.5 µM
GI50 [30]: 2.4 µM
IC (TGI) [30]: 7.59 µM
GI50 [31]: 3.24 µM
IC (TGI) [31]: 11.2 µM
GI50 [32]: 3.98 µM
IC (TGI) [32]: > 100 µM
